Measured values as given in patent US20090023759A1, “Quinazoline Derivatives as Inhibitors of EGF and/or erbB2 Receptor Tyrosine Kinase” (priority 2005, published 2009).
pIC50: −log10 of the molar value.

How the values were obtained:
EGFR tyrosine kinase = target: T1, EGFR tyrosine kinase (Homo sapiens, UniProt P00533); assay: Test (a) protein tyrosine kinase phosphorylation assay, EGFR; format: biochemical; conditions: ATP at Km concentration; read-out: IC50 Test (a): Inhibition of EGFR tyrosine kinase protein phosphorylation
T1 construct: Recombinant intracellular fragments of EGFR, erbB2 and erbB4; made in house; host or cells: baculovirus/Sf21 insect cells (cleared lysate used)
T1 sequence (P00533 669-1210 limits assumed): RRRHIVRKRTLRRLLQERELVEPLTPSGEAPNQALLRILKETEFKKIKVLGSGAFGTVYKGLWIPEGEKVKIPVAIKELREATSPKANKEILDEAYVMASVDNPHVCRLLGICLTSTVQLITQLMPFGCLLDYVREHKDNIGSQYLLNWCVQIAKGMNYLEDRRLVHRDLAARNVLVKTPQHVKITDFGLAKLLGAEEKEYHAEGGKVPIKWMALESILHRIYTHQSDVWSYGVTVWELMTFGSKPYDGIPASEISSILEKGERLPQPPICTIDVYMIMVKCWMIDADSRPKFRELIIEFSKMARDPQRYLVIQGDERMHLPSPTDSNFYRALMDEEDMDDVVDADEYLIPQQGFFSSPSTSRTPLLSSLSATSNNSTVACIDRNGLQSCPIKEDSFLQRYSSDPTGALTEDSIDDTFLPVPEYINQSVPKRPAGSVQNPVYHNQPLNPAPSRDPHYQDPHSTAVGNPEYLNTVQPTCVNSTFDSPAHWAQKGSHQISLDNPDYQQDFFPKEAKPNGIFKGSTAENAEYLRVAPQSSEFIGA
Procedure: (§1) a) Protein Tyrosine Kinase phosphorylation Assays
(§2) This test measures the ability of a test compound to inhibit the phosphorylation of a tyrosine containing polypeptide substrate by EGFR, erbB2 and erbB4 tyrosine kinase enzyme.
(§3) Recombinant intracellular fragments of EGFR, erbB2 and erbB4 (accession numbers X00588, X03363 and L07868 respectively) were cloned and expressed in the baculovirus/Sf21 system. […]
(§4) Constitutive kinase activity of these recombinant proteins was determined by their ability to phosphorylate a synthetic peptide (made up of a random co-polymer of Glutamic Acid, Alanine and Tyrosine in the ratio of 6:3:1). […]
(§5) The immobilised phospho-peptide product of the reaction was detected by immunological methods. […] After further washing, HRP activity in each well of the plate was measured colorimetrically using 22′-Azino-di-[3-ethylbenzthiazoline sulfonate (6)]diammonium salt crystals (ABTS™ from Roche) as a substrate.
(§6) Quantification of colour development and thus enzyme activity was achieved by the measurement of absorbance at 405 nm on a Molecular Devices ThermoMax microplate reader. Kinase inhibition for a given compound was expressed as an IC50 value. […] The range of phosphorylation was calculated from the positive (vehicle plus ATP) and negative (vehicle minus ATP) control values.

erbB2 tyrosine kinase = target: T2, erbB2 tyrosine kinase (Homo sapiens, UniProt P04626); assay: Test (a) protein tyrosine kinase phosphorylation assay, erbB2; format: biochemical; conditions: ATP at Km concentration; read-out: IC50 Test (a): Inhibition of erbB2 tyrosine kinase protein phosphorylation
T2 construct: Recombinant intracellular fragments of EGFR, erbB2 and erbB4; made in house; host or cells: baculovirus/Sf21 insect cells (cleared lysate used)
T2 sequence (P04626 676-1255 limits assumed): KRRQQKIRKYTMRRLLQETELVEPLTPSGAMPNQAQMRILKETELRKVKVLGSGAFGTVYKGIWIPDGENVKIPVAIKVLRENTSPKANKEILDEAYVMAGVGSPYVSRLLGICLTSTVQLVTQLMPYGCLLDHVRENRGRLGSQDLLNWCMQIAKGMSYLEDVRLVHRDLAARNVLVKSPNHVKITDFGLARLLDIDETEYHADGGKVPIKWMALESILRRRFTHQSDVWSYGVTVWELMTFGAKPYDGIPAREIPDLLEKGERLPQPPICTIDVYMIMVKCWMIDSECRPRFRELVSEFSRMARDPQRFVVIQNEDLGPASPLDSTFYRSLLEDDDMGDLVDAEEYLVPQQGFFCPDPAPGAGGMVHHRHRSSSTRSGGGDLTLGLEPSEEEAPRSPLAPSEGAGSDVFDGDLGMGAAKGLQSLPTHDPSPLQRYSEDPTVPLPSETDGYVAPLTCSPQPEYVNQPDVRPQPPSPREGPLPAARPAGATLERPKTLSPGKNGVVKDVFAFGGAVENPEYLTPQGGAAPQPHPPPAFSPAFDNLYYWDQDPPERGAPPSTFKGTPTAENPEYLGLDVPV
Procedure: as §1, §2, §3, §4, §5, §6

[1] = target: T3, erbB2 in a MCF7 derived cell line (Clone 24 cells) (Homo sapiens, UniProt P04626); assay: Test (c) Clone 24 phospho-erbB2 cell assay; format: cell-based; conditions: 4 hours with compound, read-out: IC50 Test (c): Inhibition of erbB2 tyrosine kinase protein phosphorylation
T3 construct: a cell line that overexpresses full length wild type erbB2 protein; expressed in transfected cells
T3 sequence (P04626 23-1255): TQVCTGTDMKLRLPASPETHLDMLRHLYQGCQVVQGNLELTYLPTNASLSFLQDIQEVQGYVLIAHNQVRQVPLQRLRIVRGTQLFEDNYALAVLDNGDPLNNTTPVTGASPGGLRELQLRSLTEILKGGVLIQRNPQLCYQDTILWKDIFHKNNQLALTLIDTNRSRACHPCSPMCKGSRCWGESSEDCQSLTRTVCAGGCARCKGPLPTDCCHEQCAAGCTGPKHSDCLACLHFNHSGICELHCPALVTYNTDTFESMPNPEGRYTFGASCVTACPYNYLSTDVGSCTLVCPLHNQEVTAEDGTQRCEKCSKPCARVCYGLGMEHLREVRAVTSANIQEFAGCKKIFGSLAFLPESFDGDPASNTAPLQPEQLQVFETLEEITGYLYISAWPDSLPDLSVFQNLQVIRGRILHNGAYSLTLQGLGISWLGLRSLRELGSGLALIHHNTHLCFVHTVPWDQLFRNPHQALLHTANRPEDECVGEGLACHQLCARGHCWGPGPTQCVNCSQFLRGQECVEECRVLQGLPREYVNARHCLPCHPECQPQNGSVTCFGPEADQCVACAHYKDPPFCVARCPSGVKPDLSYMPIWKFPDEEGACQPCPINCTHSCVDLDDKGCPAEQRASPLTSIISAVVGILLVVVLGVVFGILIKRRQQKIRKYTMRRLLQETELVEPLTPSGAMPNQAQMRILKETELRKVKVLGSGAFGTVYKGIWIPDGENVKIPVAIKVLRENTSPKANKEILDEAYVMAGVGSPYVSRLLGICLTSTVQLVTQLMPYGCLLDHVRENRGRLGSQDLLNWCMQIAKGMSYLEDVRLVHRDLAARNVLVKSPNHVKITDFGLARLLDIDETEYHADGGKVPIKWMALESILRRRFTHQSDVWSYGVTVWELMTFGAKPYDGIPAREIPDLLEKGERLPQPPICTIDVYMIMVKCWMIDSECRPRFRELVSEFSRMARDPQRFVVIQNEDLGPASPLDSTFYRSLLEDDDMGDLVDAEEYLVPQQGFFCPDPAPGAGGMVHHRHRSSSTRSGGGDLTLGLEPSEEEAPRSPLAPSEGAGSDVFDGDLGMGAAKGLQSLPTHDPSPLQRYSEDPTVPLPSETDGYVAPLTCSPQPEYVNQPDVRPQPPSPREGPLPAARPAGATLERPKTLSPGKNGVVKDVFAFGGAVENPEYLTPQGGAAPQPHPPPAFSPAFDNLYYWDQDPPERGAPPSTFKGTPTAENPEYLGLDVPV
Procedure: c) Clone 24 Phospho-erbB2 Cell Assay
This immunofluorescence end point assay measures the ability of a test compound to inhibit the phosphorylation of erbB2 in a MCF7 (breast carcinoma) derived cell line which was generated by transfecting MCF7 cells with the full length erbB2 gene using standard methods to give a cell line that overexpresses full length wild type erbB2 protein (hereinafter ‘Clone 24’ cells).
Clone 24 cells were cultured in Growth Medium (phenol red free Dulbecco's modified Eagle's medium (DMEM) containing 10% foetal bovine serum, 2 mM glutamine and 1.2 mg/ml G418) in a 7.5% CO2 air incubator at 37° C. […] Cell density was measured using a haemocytometer and viability was calculated using Trypan Blue solution before being further diluted in Growth Medium and seeded at a density of 1×10^4 cells per well (in 100 μl) into clear bottomed 96 well plates (Packard, No. 6005182). […]
Immunostaining was performed at room temperature. […] Plates were analysed within six hours of completing the immunostaining.
The Fluorescence signal is each well was measured using an Acumen Explorer Instrument (Acumen Bioscience Ltd.), a plate reader that can be used to rapidly quantitate features of images generated by laser-scanning. […]

SMILES | pIC50 (EGFR tyrosine kinase) | pIC50 (erbB2 tyrosine kinase) | pIC50 [1]
C[C@H](COc1cccc2ncnc(Nc3ccc4c(ccn4Cc4ccccn4)c3)c12)N(C)C(=O)CO [Example 2, 2-Hydroxy-N-methyl-N-{(R)-1-methyl-2-[4-(1-pyridin-2-ylmethyl-1H-indol-5-ylamino)-quinazolin-5-yloxy]-ethyl}-acetamide] | 7.20 | 8.30 | 8.70
C[C@H](CN(C)C(=O)CO)Oc1cccc2ncnc(Nc3ccc4c(ccn4Cc4ccccn4)c3)c12 [Example 1, 2-Hydroxy-N-methyl-N-{(2R)-2-[(4-{[1-(pyridin-2-ylmethyl)-1H-indol-5-yl]amino}quinazolin-5-yl)oxy]propyl}acetamide] | 6.11 | 7.15 | 6.00
